For one experiment, the system named is HR repair. Nature of the experiment: HR reporter assay in SKOV3-DR-GFP cells. The class given is cell-based. The note with it: Homo sapiens, SK-OV-3, I-SceI-induced DSB, 48 hr, read-out: IC50 for inhibiting HR repair. An excerpt: Cells were transfected with the ISceI-expressing plasmid and then treated various concentrations of DB4 for 48 hr. Cells were harvested, stained with 7-AAD, and analyzed by flow cytometry for GFP-positive cells indicative of HR repair activity. […] Cells were transfected with the ISceI-expressing plasmid and treated with various concentrations of DB4. Cells were harvested, stained with 7-AAD, and stained, and analyzed by flow cytometry for GFP-positive cells indicative of NHEJ activity. Data are means±SD (N=3). *, p<0.05; **, p<0.01, compared with the 0 μM control of ISceI-transected cells. […] Cells were also scored for nuclei containing equal or more than 10 distinct Rad51 foci to determine the percentage of cells positive for Rad51 foci. […] Protein was assessed by western blot analysis for the levels of γH2AX, p-H1, cyclin A2, p-CDK1/2, and HSC70. […] The band density of γH2AX indicative of DSBs was quantified by densitometry. […]
The ability of DB4 to inhibit endonuclease-induced DSB repair of reporter genes in SKOV3 cells was evaluated. […]
SKOV3-DR-GFP cells were established as described previously (Lin Z P et al., 2014, Molecular Cancer Res, 12:381-393). […] Cells were then trypsinized, stained with 7-AAD, and analyzed for the percentage of GFP-positive and […] cells by flow cytometry using an LSR II flow cytometer (BD Biosciences) and FlowJo software (Tree Star; Ashland, OR). […]

A further experiment concerns SKOV3 cells. The experiment can be described thus: Clonogenic assay, SKOV3. The format is cell-based. The following applies: DB4 at 6 μM, 14 days. As for the experimental part:
Cells were plated for 24 hr, pre-treated with DB4 for 1 hr, and then treated with various concentrations of olaparib for 14 days. Colonies were stained and determined for clonogenic survival.
To further substantiate the effectiveness of DB4 and mitigate the issue of off-target effects with a higher concentration range of drugs used in the MTS cytotoxicity assay, clonogenic assays were carried out to determine the long-term survival of cells in response to treatments.
The assay was conducted as described previously (Lin Z P et al., 2014, Molecular Cancer Res, 12:381-393). Cells were plated at various densities in 6-well plates in triplicate. After 24 hr of incubation, cells were treated continuously with various concentrations of olaparib, DB4, or both drugs in combination. After 12-14 days, colonies were fixed/stained with crystal violet solution and counted to determine the percentage of survival using a GelDoc imaging system with QuantityOne software (Bio-Rad, Hercules, CA).

In general, IC50 refers to the concentration that inhibits the measured activity by half. In the case of `C=CCn1c(SCc2cccc(Cl)c2)nnc1C1CCN(Cc2nc3ccccc3s2)CC1` [DB4, 2-[(4-{4-allyl-5-[(3-chlorobenzyl)thio]-4H-1,2,4-triazol-3-yl}-1-piperidinyl)methyl]-1,3-benzothiazole], the IC50 in the experiment with HR repair turned out to be 5.4 µM. Besides, in the experiment with SKOV3 cells, the “clonogenic survival in the presence of olaparib” value was “effectively reduced the clonogenic survival”.

The values are drawn from patent US20240239786A1, “COMPOSITIONS AND METHODS FOR THE TREATMENT AND PREVENTION OF CANCER” (Yale University, priority 2021, published 2024).
